Reference: patent publication US12103936B2, “Crystal form of hepatitis B surface antigen inhibitor” (FUJIAN AKEYLINK BIOTECHNOLOGY CO., LTD., priority 2018, dated 2024)

Columns and labels:
HBsAg [1] = experiment: In vivo efficacy study in AAV/HBV mice model, HBsAg content in serum; set-up: species or system C57BL/6 mice; conditions: PO
From the text: C57BL/6 mice, 10% HP-β-CD as vehicle, TDF ([…]) as refer compound, the compound of formula (I), and recombinant virus rAAV8-1.3HBV.
The reagents of the present project mainly included QIAamp96 DNA kit and TaqMan® Universal PCR Master Mix, hepatitis B surface antigen test kit.
The instrument included centrifuge (Beckman Allegra X-15R), tissue grinder (QIAGEN-Tissue lyser II) and spectrophotometer (Thermo-NANODROP 1000).
• a) All mice were administrated orally on the day 28 after being injected with virus, the day of administration was designated as day 0. Before administration, serum was collected by submandibular blood sampling for all mice. The mice were administration once a day for four weeks. The detailed dosage regimen was shown in Table 3. • b) Serum was collected by submandibular blood sampling for all mice twice a week, with each sampling volume being approximately 100 μL. The detailed blood sampling time is shown in Table 3. • c) On the day 28, all mice were euthanized and the blood was collected from the heart for serum collection. • d) All serum samples were sent for analysis.
The anti-HBV activity of the test compound in AAV/HBV mice model was evaluated by determining the content of HBsAg in the serum of the mice.

surface antigens = conditions: woodchuck model, single drug; cited from earlier work
HBV-DNA [2] = conditions: woodchuck model, single drug; cited from earlier work
HBV-DNA [3] = experiment: HBV in vitro test in HepG2.2.15 cells, HBV-DNA by quantitative PCR; assay type: cell-based; conditions: Hepatitis B virus, 192 h, culture medium collected on day 8, read-out: EC50 against HBV-DNA
Experimental: (§1) 1. Cell Line: HepG2.2.15 Cells
(§2) • Pancreatin (Invitrogen-25300062) • DPBS (Corning-21031CVR) • DMSO (Sigma-D2650-100 mL) • High-throughput DNA purification kit (QIAamp 96 DNA Blood Kit, Qiagen-51162) • Quantitative quick start universal probe reagent (FastStart Universal Probe Master, Roche-04914058001) • Hepatitis B surface antigen quantitative test kit (Autobio, CL0310) 3. Consumables and Instruments: • 96-well cell culture plate (Cornin-3599) • CO2 incubator (HERA-CELL-240) • Optical sealing film (ABI-4311971) • Quantitative PCR 96-well plate (Applied Biosystems-4306737) • Fluorescence quantitative PCR instrument (Applied Biosystems-7500 real time PCR system) Experimental Methods: • 1. HepG2.2.15 cells (4×10^4 cells/well) were seeded to a 96-well plate and cultured overnight at 37° C., 5% CO2. • 2. On the day 2, the compound was diluted to a total of 8 concentrations, with a 3-fold gradient dilution. Different concentrations of compounds were added into the culture wells in duplicate wells. The final concentration of DMSO in the culture medium was 0.5%. 10 μM ETV (Entecavir) was used as a 100% inhibition control; 0.5% DMSO was used as a 0% inhibition control. • 3. […]
(§3) 50 μL of sample and standard were added into a reaction plate respectively, followed by addition of 50 μL of enzyme conjugate into each well. […] Chemoluminescence intensity was determined by an ELISA finally. • 9.

HBsAg [4] = experiment: HBV in vitro test in HepG2.2.15 cells, hepatitis B surface antigen by ELISA; assay type: cell-based; conditions: Hepatitis B virus, HepG2.2.15, 192 h, read-out: EC50 against HBsAg
Experimental: as §1, §2, §3

[5] = 10 mg/kg, detection date day 11
[6] = 10 mg/kg, detection date day 14
[7] = 10 mg/kg, detection date day 18
[8] = 10 mg/kg, detection date day 21
[9] = 10 mg/kg, detection date day 25
[10] = 10 mg/kg, detection date day 28
[11] = 10 mg/kg, detection date day -1

## COCCCOc1cc2c(cc1OC)-c1cc(=O)c(C(=O)O)cn1[C@H](C(C)C)C2 [RG7834, reference compound]
HBsAg [1]; 10 mg/kg, detection date day 4
  HBsAg content in mice: 3.54 IU/mL
HBsAg [1]; 10 mg/kg, detection date day 7
  HBsAg content in mice: 3.58 IU/mL
HBsAg [1]; [5]
  HBsAg content in mice: 3.70 IU/mL
HBsAg [1]; [6]
  HBsAg content in mice: 3.49 IU/mL
HBsAg [1]; [7]
  HBsAg content in mice: 3.70 IU/mL
HBsAg [1]; [8]
  HBsAg content in mice: 3.52 IU/mL
HBsAg [1]; [9]
  HBsAg content in mice: 3.50 IU/mL
HBsAg [1]; [10]
  HBsAg content in mice: 3.66 IU/mL
HBsAg [1]; [11]
  HBsAg content in mice: 4.56 IU/mL
Surface antigens
  reduction of surface antigens: 2.57 Log
HBV-DNA [2]
  reduction of HBV-DNA: 1.7 Log

## COCCCOc1cc2c(cc1OC)-c1cc(=O)c(C(=O)O)cn1[C@H](C(C)(C)C)CO2 [the compound of formula (I)]
HBV-DNA [3]
  EC50: 2.55 nM
HBsAg [4]
  EC50: 3.88 nM
HBsAg [1]; 3 mg/kg, detection date day 4
  HBsAg content in mice: 3.68 IU/mL
HBsAg [1]; 3 mg/kg, detection date day 7
  HBsAg content in mice: 3.70 IU/mL
HBsAg [1]; 3 mg/kg, detection date day 11
  HBsAg content in mice: 3.76 IU/mL
HBsAg [1]; 3 mg/kg, detection date day 14
  HBsAg content in mice: 3.70 IU/mL
HBsAg [1]; 3 mg/kg, detection date day 18
  HBsAg content in mice: 3.85 IU/mL
HBsAg [1]; 3 mg/kg, detection date day 21
  HBsAg content in mice: 3.78 IU/mL
HBsAg [1]; 3 mg/kg, detection date day 25
  HBsAg content in mice: 3.76 IU/mL
HBsAg [1]; 3 mg/kg, detection date day 28
  HBsAg content in mice: 3.96 IU/mL
HBsAg [1]; 3 mg/kg, detection date day -1
  HBsAg content in mice: 4.54 IU/mL
HBsAg [1]; 10 mg/kg, detection date day 4
  HBsAg content in mice: 3.56 IU/mL
HBsAg [1]; 10 mg/kg, detection date day 7
  HBsAg content in mice: 3.69 IU/mL
HBsAg [1]; [5]
  HBsAg content in mice: 3.92 IU/mL
HBsAg [1]; [6]
  HBsAg content in mice: 3.61 IU/mL
HBsAg [1]; [7]
  HBsAg content in mice: 3.90 IU/mL
HBsAg [1]; [8]
  HBsAg content in mice: 3.75 IU/mL
HBsAg [1]; [9]
  HBsAg content in mice: 3.83 IU/mL
HBsAg [1]; [10]
  HBsAg content in mice: 3.87 IU/mL
HBsAg [1]; [11]
  HBsAg content in mice: 4.51 IU/mL
HBsAg [1]; 30 mg/kg, detection date day 4
  HBsAg content in mice: 3.38 IU/mL
HBsAg [1]; 30 mg/kg, detection date day 7
  HBsAg content in mice: 3.44 IU/mL
HBsAg [1]; 30 mg/kg, detection date day 11
  HBsAg content in mice: 3.64 IU/mL
HBsAg [1]; 30 mg/kg, detection date day 14
  HBsAg content in mice: 3.40 IU/mL
HBsAg [1]; 30 mg/kg, detection date day 18
  HBsAg content in mice: 3.55 IU/mL
HBsAg [1]; 30 mg/kg, detection date day 21
  HBsAg content in mice: 3.46 IU/mL
HBsAg [1]; 30 mg/kg, detection date day 25
  HBsAg content in mice: 3.37 IU/mL
HBsAg [1]; 30 mg/kg, detection date day 28
  HBsAg content in mice: 3.53 IU/mL
HBsAg [1]; 30 mg/kg, detection date day -1
  HBsAg content in mice: 4.48 IU/mL
